The text below walks through data of patent publication US11246907B2, “Immunosuppressive agents and their use in therapy” (Norwegian University of Science and Technology, priority 2013, dated 2022).

One data set deals with JJN-3 cells. As to the kind of experiment: Cell survival (MTT) assay, multiple myeloma cell line JJN-3. Particulars: 6 μM ATX-101 with 5 μM LY294002 or 10 μM SB20358. The format is cell-based. As for the experimental part:
Phosphorylated kinase levels were corrected for loading differences (β-tubulin) and normalized to untreated control cells. Data is from three independent experiments (mean±SD).
(§1) The multiple myeloma cell lines JJN-3 (gift from J. Ball, University of Birmingham, United Kingdom) were grown in RPMI 1640 (Sigma-Aldrich, Schnelldorf, Germany) supplemented with 10% FCS, 2 mM glutamine (Sigma-Aldrich), 2.5 μg/ml amphotericin B (Sigma-Aldrich) and 100 μg/ml gentamicin (Invitrogen, Carlsbad, Calif., USA). HaCaT cells (spontaneously transformed keratinocytes) were cultured in DMEM (Sigma-Aldrich) containing FCS, glutamine, amphotericin B, and gentamicin. All cells were cultured at 37° C. in a humidified atmosphere of 5% CO2.
Cells were seeded into 96-well plates and ATX-101, kinase inhibitors (SB203580 and BIRB0796), and polyIC were added alone or in combination at the indicated concentrations. Cells were exposed continuously and harvested every day for the next four days using the MTT (3-(4.5-Dimethylthiazol-2-yl)-2.5 diphenyl-tetrazolium bromide) assay (Gilljam et al., 2009, supra). The average from at least 4 wells was used to calculate cell survival.

A further data set deals with PCNA (Homo sapiens, UniProt P12004). As to the kind of experiment: Microscale thermophoresis (MST) of peptide interaction with PCNA. It counts as binding. The protocol: Microscale thermophoresis (MST) was used to determine the dissociation constant for various APIM containing peptides.
PCNA was labeled with a fluorescent molecule. The concentration of PCNA was kept constant, whereas dilutions of each APIM containing peptide were prepared (1:1).
(In MST a laser heats a spot of the sample, and binding alters the fluorescence response.)

Data set [1] has as its system Akt Ser473 phosphorylation. As to the kind of experiment: Western blot of Akt Ser473 phosphorylation in JJN-3 cells. The following applies: 6 μM ATX-101, 4, 8, 24 h. It counts as cell-based.
A further data set concerns PACT. As to the kind of experiment: Western blot of PACT protein levels in HaCaT cells. It counts as cell-based, human. Particulars: 12 μM ATX-101 + 2 μg/ml polyIC, 4 h. As for the experimental part: Protein levels were corrected for loading differences (β-tubulin) and normalized to untreated control cells. […] Bar, 5 μm.
as §1
Mononucleated cells were seeded and stimulated as described above. JJN-3 cells were treated with ATX-101 (6 μM) for 4 h. HaCaT cells were treated with ATX-101 (12 μM), polylC (2 μg/ml), and LPS (100 ng/ml) for 4 h. […] The proteins were visualized with the Odyssey infrared imaging system (LI-COR) and quantified using Odyssey Image Studio V2. […]
Background: Immunoblotting shows a protein as a band on a membrane.

In the next data set the test system is normal cells. Particulars: 4 μM dose; cited from earlier work.
The test system of the next data set is monocytes. As to the kind of experiment: Annexin staining / flow cytometry of monocytes (apoptosis). The format is cell-based, human. The following applies: for Percentage of annexin positive cells: 4 hours, monocytes. The protocol: Annexin staining was used to determine cell viability and cells were counted using flow cytometry.
Peripheral blood […] were isolated from A+ buffy coats (Blood Bank, St. Olav's University Hospital) by density gradient centrifugation (Lymphoprep; Axis-Shield PoC, Oslo, Norway). The adherent cell fraction after 90 minute incubation, termed monocytes, were washed twice with HANKS and maintained in RPMI 1640 supplemented with 2 mM glutamine, […] gentamicin and 25% heat-inactivated HS over-night. Cells were cultured at 37° C. in a humidified atmosphere of 5% CO2 over-night. […] An R11 peptide and no peptide treatment were used as controls. After 4 hours, the cells were washed once in PBS, and re-suspended in buffer as recommended by the manufacturer of the Annexin V-Pacific Blue kit (Invitrogen). Cells were identified monocytes according to size (FSC) and granularity (SSC).
For orientation: A flow cytometer gives signals particle by particle.

Ends that are not written are not given here.

Sequence of PCNA (P12004 whole entry): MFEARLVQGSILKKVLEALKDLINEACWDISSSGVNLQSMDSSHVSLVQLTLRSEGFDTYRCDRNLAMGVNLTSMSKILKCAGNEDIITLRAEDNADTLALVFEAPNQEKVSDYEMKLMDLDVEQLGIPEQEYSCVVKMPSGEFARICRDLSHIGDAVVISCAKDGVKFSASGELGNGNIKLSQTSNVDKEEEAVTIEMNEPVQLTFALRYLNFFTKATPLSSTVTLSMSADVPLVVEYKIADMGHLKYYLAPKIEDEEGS

In the case of Ac-MDRWLVKWKKKRKIRRRRRRRRRRR [ATX-101], the “growth-inhibitory effect of kinase inhibitors in combination with ATX-101 (cell growth, MTT)” value in the data set on JJN-3 cells was “increased the growth-inhibitory effect of p38 MAPK and class I PI3K inhibitors”. In addition, the “interaction with PCNA by MST (in words)” value at PCNA is “stronger interactions with PCNA than ATX-A”. For the same substance, the “phosphorylation of Akt” value in data set [1] is “decreased”. For the same substance, in the data set with PACT, the “PACT protein level, polyIC-stimulated HaCaT cells” value is “further reduced the protein level of PACT”. Moreover, the “toxicity on normal cells in BMCS assays” value with normal cells is reported as “low toxicity”. Also, the “Percentage of annexin positive cells” value amounted to 72% in the data set on monocytes (5μM peptide treatment) and 79% with monocytes (10 μM peptide treatment). For the same substance, the “induction of apoptosis in monocytes” value in the data set on monocytes (at the concentration used for cytokine secretion (4 μM)) is listed as “did not induce apoptosis”.
